Experiments:
[1] = Solution dipping, flat-iron thermal straightening, imaging analysis of tress length and width; design: species or system human; settings: for Ranking for semi-permanent thermal straightening efficiency: from imaging analysis data; for Comparative straightening behaviour in words: imaging analysis data
Description: (§1) This method is used primarily to screen and select candidate molecules as possible thermally-activated agents. Typically, a solution of the candidate molecule is prepared in a suitable solvent system. The hair-tress is immersed completely in the solution with controlled concentration of candidate thermally-activated agent, pH, temperature and soaking time, such as for up to 60 minutes. Then, the hair-tress is removed from the solution, excess amount of material squeezed out, and the tress is blow-dried to at least 95% dryness before thermal straightening.
2. Image Analysis: the method can be used to quantify the curly hair-tress thermal straightening efficiency for different treatments. Measurements of tress length and width at half-length can be made with this method.
As for other tests, a curly hair-tress was completely immersed in an aqueous solution of a selected one of the small molecules and soaked for 45 minutes. Each solution contained an equimolar amount of the selected small molecule. The hair-tress was then removed from the solution, excess water was squeezed out manually, and the hair dried by a blower dryer to the desired dryness before thermal straightening, as described above.
The imaging analysis method was used to measure the total length and width of the hair-tress before and after the thermal straightening process, and after each shampoo-wash-cycle. More specifically, photographs of hair tresses or bundles of hair tresses were taken against a solid color background with a tripod-mounted digital camera. Illumination was selected to minimize shadows which could affect measurements. The tress was hung from a spindle that enabled the tress to be rotated 90 degrees so that pictures could be taken from four different angles, providing a full view of the tress, with a ruler mounted close to the tress as a scale.
The National Institutes for Health's Image J software program was used for image processing and analysis. […] The curly hair-tress has a contour length of 20 cm, and the top glued part is 2.0 cm wide and is about 0.4 cm of length. Therefore, the effective hair-tress contour length is 19.6 cm.

[2] = Solution-dipping screening, flat-iron straightening, shampoo-wash-fastness; design: species or system human; settings: used alone under the same conditions
Description: as §1
The shampoo-wash-fastness is carried out by applying shampoo (VO5 or Suave shampoo) on the hair-tress which is massaged for 30 seconds followed by rinsing for 60 seconds with running warm water (32-35° C.). The washed hair-tress is then dried at 23° C. and 50% RH. Consecutive shampoo-wash-cycles are carried out without the drying step.
In the following initial screening test, the examination of thermally straightened hair-tresses is performed by visually examining a tress which has been treated in a solution containing up to 30 wt. % of a candidate thermally-activated agent for 45 minutes, flat-ironed at 210° C. (10×12 seconds). After three consecutive wash cycles, if the dried hair-tress (23° C. and 50% RH) becomes curly, this material is considered not effective, i.e. not worth a further evaluation in a cream formulation.

[3] = Solubility in water at room temperature; format: physicochemical; settings: room temperature (25° C.)
[4] = average over 1-24 shampoos after thermal treatment
[5] = thermally-treated tress, equimolar aqueous solution, 45 min soak
[6] = thermally-treated tress, width at half-length

SMILES: O=C1NCCN1 [EU, Ethylene Urea]
- Front: Width1/2 [1, 4]: 4.1 ± 0.2 cm
- Lengthmax [1, 4]: 18.2 ± 0.2 cm
- Side: Width1/2 [1, 4]: 2.6 ± 0.1 cm
- Ranking for semi-permanent thermal straightening efficiency [1]: GA≈EC≈F≧TC>O>EU>U
- Comparative straightening behaviour in words [1]: relax the curly hair-tress to some degree
- Lengthmax [1, 5]: 19.4 cm
- Front: Width1/2 [1, 6]: 3.2 cm
- Side: Width1/2 [1, 6]: 1.6 cm

SMILES: O=C1OCCO1 [EC, ethylene carbonate]
- Front: Width1/2 [1, 4]: 2.6 ± 0.1 cm
- Lengthmax [1, 4]: 19.4 ± 0.1 cm
- Side: Width1/2 [1, 4]: 1.5 ± 0.1 cm
- Comparative straightening behaviour in words [1]: behave similarly to formaldehyde (F) and glyoxylic acid (GA)
- Lengthmax [1, 5]: 19.4 cm
- Front: Width1/2 [1, 6]: 3.6 cm
- Side: Width1/2 [1, 6]: 0.9 cm

SMILES: CC1COC(=O)O1 (centres unmarked) [PC, propylene carbonate]
- Straightening effectiveness relative to ethylene carbonate [2]: less effective
- Solubility in water [3]: up to 20 wt. %

SMILES: O=C1NCCO1 [O, 2-oxazolidinone]
- Front: Width1/2 [1, 4]: 3.9 ± 0.2 cm
- Lengthmax [1, 4]: 18.4 ± 0.1 cm
- Side: Width1/2 [1, 4]: 2.7 ± 0.2 cm
- Ranking for semi-permanent thermal straightening efficiency [1]: GA≈EC≈F≧TC>O>EU>U
- Comparative straightening behaviour in words [1]: gives better straightening results than urea (U) and ethylene urea (EU)
- Lengthmax [1, 5]: 19.3 cm
- Front: Width1/2 [1, 6]: 3.3 cm
- Side: Width1/2 [1, 6]: 1.7 cm

SMILES: O=CC(=O)O [GA, Glyoxylic Acid]
- Front: Width1/2 [1, 4]: 2.5 ± 0.5 cm
- Lengthmax [1, 4]: 19.2 ± 0.3 cm
- Side: Width1/2 [1, 4]: 1.4 ± 0.2 cm
- Ranking for semi-permanent thermal straightening efficiency [1]: GA≈EC≈F≧TC>O>EU>U
- Lengthmax [1, 5]: 19.5 cm
- Front: Width1/2 [1, 6]: 2.8 cm
- Side: Width1/2 [1, 6]: 1.2 cm

SMILES: O=C1OCC(CO)O1 (centres unmarked) [GC, glycerol carbonate]
- Straightening effectiveness relative to ethylene carbonate [2]: less effective

SMILES: NC(N)=O [U, Urea]
- Front: Width1/2 [1, 4]: 5.8 ± 0.2 cm
- Lengthmax [1, 4]: 18.2 ± 0.2 cm
- Side: Width1/2 [1, 4]: 4.0 ± 0.4 cm
- Ranking for semi-permanent thermal straightening efficiency [1]: GA≈EC≈F≧TC>O>EU>U
- Comparative straightening behaviour in words [1]: relax the curly hair-tress to some degree
- Lengthmax [1, 5]: 19.6 cm
- Front: Width1/2 [1, 6]: 3.6 cm
- Side: Width1/2 [1, 6]: 2.0 cm

Reference: patent US9872824B2, “Semi-permanent hair straightening composition and method” (Lubrizol Advanced Materials, Inc., priority 2013, dated 2018)
